Measured values from the NIST ThermoML archive (doi:10.1021/je5010643).

Assays:
[1] = refractive index (Na D-line) (dimensionless); conditions: 101.32 kPa, Liquid, Standard Abbe refractometry
[2] = 101.32 kPa, Liquid; for speed of sound: Frequency=3 MHz, Linear variable-path acoustic interferometer
[3] = xn = mol fraction of the nth substance listed; conditions: 101.32 kPa, Liquid, x1 = 1; for speed of sound: Frequency=3 MHz, Linear variable-path acoustic interferometer
[4] = refractive index (Na D-line) (dimensionless); xn = mol fraction of the nth substance listed; conditions: 101.32 kPa, Liquid, Standard Abbe refractometry, x1 = 1

C1COCCO1 [1,4-dioxane]
Conditions	mass density, [2] [kg/m3]	refractive index, [1]	speed of sound, [2] [m/s]
295.15 K	1030.86	1.4211	1357.7
298.15 K	1027.59	1.4197	1344.8
301.15 K	1024.32	1.4183	1331.9
304.15 K	1021.05	1.4168	1319
307.15 K	1017.78	1.4154	1306.2
310.15 K	1014.51	1.4138	1293.3
313.15 K	1011.24	1.4124	1280.4

C1COCCO1 [1,4-dioxane] + CC(C)C(=O)O
Conditions	mass density, [3] [kg/m3]	refractive index, [4]	speed of sound, [3] [m/s]
295.15 K	1030.86	1.4211	1357.7
298.15 K	1027.59	1.4197	1344.8
301.15 K	1024.32	1.4183	1331.9
304.15 K	1021.05	1.4168	1319
307.15 K	1017.78	1.4154	1306.2
310.15 K	1014.51	1.4138	1293.3
313.15 K	1011.24	1.4124	1280.4

CC(C)C(=O)O [2-methylpropanoic acid]
Conditions	mass density, [2] [kg/m3]	refractive index, [1]	speed of sound, [2] [m/s]
295.15 K	945.28	1.3919	1100.2
298.15 K	942.22	1.3907	1086
301.15 K	939.16	1.3895	1072.1
304.15 K	936.1	1.3883	1058.2
307.15 K	933.04	1.3872	1043.4
310.15 K	929.98	1.386	1030.8
313.15 K	926.92	1.3849	1015.2
